The values that follow come from patent publication US7288573B2, “Method of repelling insects” (priority 2001, dated 2007).

What all share (format): in vivo
One test relates to cockroaches. Put plainly: Cockroach repellency, paste floor wax with 2-undecanone. The following applies: one percent by weight in paste floor wax. The source says: A commercially available paste floor wax is combined with one percent by weight of 2-undecanone and the two ingredients mixed thoroughly together. The paste floor wax is then applied to a region of flooring and buffed. The same paste floor wax, without 2-undecanone, is applied to an adjacent region of flooring in the same amount and also buffed.

In another test the test system is Culex spp. Nature of the test: Mosquito repellency of 2-undecanone versus DEET, treated cloth on forearm (Example 8). The following applies: 5% and 20% in ethyl alcohol sprayed onto cloth; landings in 5 minutes. The protocol: 2-undecanone was dissolved in ethyl alcohol (v/v at 5% and 20%) and approximately 1 ml was sprayed onto cloth that was then wrapped around the investigator's forearm prior to insertion into a 59 cm×55 cm×59 cm mosquito cage containing approximately 100 Culex spp. adult mosquitoes. DEET was a formulated, commercial product (Cutter). The number of mosquito landings in 5 minutes was recorded as well as the overall behavior response of the mosquitoes. […] The most impressive evidence of this repellent effect was the observation that the mosquitoes immediately disperse away from the treated arm and actually stop flying, instead lining up on the wire screen of the cage.
The results are shown in FIG. 5 as a graph of repellency as a function of time for 0 hr, 3 hr and 6 hr post-application of the formulations (i) 21% DEET, (ii) 20% 2-undecanone (IBI-246) and (iii) 5% 2-undecanone (IBI-246), where repellency={[# mosquito landings in Control test/# mosquitoes present in Control)−(# mosquito landings in Experiment/# mosquitoes present in Experiment)] divided by (# mosquito landings in Control test/# mosquitoes present in Control)}×100.

Another test concerns Aedes taeniorhynchus. Nature of the test: Mosquito repellency of undecanone, treated gauze glove in cage. On the procedure:
Forty milliliters of a 2.5 percent solution of undecanone in absolute ethanol was added to a gauze glove (20×15 centimeters) in a 250 milliliter beaker. After soaking for 1 minute, the glove was laid onto aluminum foil in a fume hood for 13 minutes and then suspended by one end from the sash of the fume hood for 3 minutes. The ethanol appeared to be completely evaporated after this treatment as determined by touch. […] The same treatment was used without undecanone as a control. After the same drying steps, no odor of ethanol could be detected by smell. The control glove was the same physical dimensions and made from the same batch of material as the treatment. […]
Approximately 100 adult male and female mosquitoes (Aedes taeniorhynchus) (exact sex ratio not determined) were placed in a 12×12×14.5 inch stainless steel screened cage. […]
The following data are the control responses when the tester's hand covered by the ethanol treated (dried) glove was placed into the mosquito cage (at room temperature) for 20 seconds at the times indicated: 0 minutes, 10 landings and 1 bite; 10 minutes, 9-12 landings and 1 bite; 20 minutes, approximately 13 landings and no bites; and 40 minutes, approximately 13 landings and no bites. […] However, only sustained landings of about 5 seconds were recorded as a positive response along with actual bites. […]

`CCCCCCCCCC(C)=O` [2-undecanone]: in the test with cockroaches, the “time cockroaches spend in treated region versus control region of flooring” value is “spend less time in the region containing 2-undecanone”. Further, in the test on Culex spp., the “concentrations with the strongest repellent effect” value is “strongest effect at the 20% and 5% concentrations”. Moreover, the landings and bites result with Aedes taeniorhynchus (glove soaked in 2.5 percent solution in ethanol, dried, hand in cage 20 seconds at 0 minutes to 4 hours and 40 minutes) was “No landings and no bites”. Also, the host seeking behavior entry in the test on Aedes taeniorhynchus (glove soaked in 2.5 percent solution, first 3 to 4 hours) is recorded as “no host seeking behavior”.
